{"source": "patent US20190174812A1", "about": "“SOLID ORAL NICOTINE FORMULATION” (Fertin Pharma A/S, priority 2017, published 2019)", "conditions": "nicotine concentration raised from 100 microgram/mL to 14,000 microgram/mL"}
{"smiles": "CN1CCCC1c1cccnc1", "note": "(stereo not shown) [nicotine]", "values": [{"measurement": "Decrease of permeability of nicotine across the buccal mucosa (factor)", "value": "two"}]}
